≈ marks a conversion by molar mass, not a printed value. Where two headings read alike, the source gives them in different places.
Legend:
P388S cells = experiment: In vitro growth inhibition of P388S cells; assay type: cell-based; details: Mus musculus, P388/S; in vitro; read-out: P388S IC50
P388/ADR cells [1] = experiment: In vitro growth inhibition of P388/ADR cells; assay type: cell-based, murine
P388 leukemia = experiment: In vivo P388 leukemia life span study; parameters: species or system CD2F1 mice; details: maximum tolerated dose, i.p. Days 3-11 (Adriamycin Days 3, 7, 11); >130 = antitumor effect
P388/ADR leukemia = experiment: In vivo P388/ADR leukemia life span study; parameters: species or system CD2F1 mice
[2] = system: Colon 26/clone 10 (C26/10); experiment: Colon 26/clone 10 i.p. life span study; assay type: in vivo, CD2F1 mice
Description: (§1) To test compounds of the present invention in vivo, the following methodology was used. P388 leukemia and its Adriamycin resistant subline, P388/ADR were passed weekly in DBA/2 mice as i.p. implants of 10^5 and 10^6 cells, respectively. Animals bearing P388/ADR passage were treated with 7 mg/kg Adriamycin on Day 3 post-implant as a resistance selection pressure. C26/clone 10 was passed every 2 weeks into Balb/c mice as tumor fragments (approximately 30 mg) which were obtained from tumors 1 g in mass.
Colon 26/clone 10 (C26/10) life span studies were conducted in CD2F1 mice. C26/C10 cells were implanted i.p. on Day 0. Animals were treated i.p. with test agents in the vehicles described above on Days 3-7 and 10-14. Adriamycin was dosed i.p. in saline on Days 5, 9, and 13. […] Percent T/C values in excess of 130 are indicative of an antitumor effect in this model.

C26/10 tumor = experiment: C26/10 s.c. tumor growth delay study; assay type: in vivo, CD2F1 mice; details: tumor growth delay to 750 mg, s.c. implant, treated i.p. Days 3-7 and 10-14; >5 to 6 days = antitumor effect
Description: as §1
For the tumor growth delay studies with C26/10, CD2F1 mice were implanted s.c. with 30 mg tumor fragments in the region of the right axilla with the aid of a trocar on Day 0. Animals were treated i.p. with test agents in the vehicles described above on Days 3-7 and 10-14. Adriamycin was dosed i.p. in saline on Days 5, 9, and 13. Tumors in the treated and control groups were measured twice weekly in two perpendicular dimensions and tumor mass calculated according to the formula: mass (mg)=(a×b^2)/2 where “b” is the smallest tumor dimension and “a” is the largest. Calculations of tumor growth delay, defined as the median time (in days) for the treated tumors to reach 750 mg in size minus the median time (in days) for the control tumors to reach 750 mg in size, were as described previously (Schabel, 1977; Leopold, 1985; Elliot, 1984). Growth delays in excess of 5 to 6 days in the C26/10 model are considered to be an antitumor effect.

[3] = system: P388 murine leukemia cells; experiment: Combination of antifolates with FU and LV on P388 proliferation; assay type: cell-based
P388/ADR cells [4] = experiment: Combination of antifolates with FU and LV on P388/ADR proliferation; assay type: cell-based, murine
[5] = system: C26 murine colon tumor cells; experiment: Combination of antifolates with FU and LV on C26 proliferation; assay type: cell-based
colon cancer = details: cited from earlier work
[6] = system: HT29 human colon adenocarcinoma cells; experiment: Combination of antifolates with FU and LV on HT-29 proliferation (sulphorhodamine B)
[7] = in words, TMQ at a concentration 10-fold higher than the other antifolates

`COc1cc(NCc2ccc3nc(N)nc(N)c3c2C)cc(OC)c1OC` [Trimetrexate, reference compound] showed an IC50 (P388S cells) of 6.9 ng/mL (≈ 0.0187 µM), an IC50 (P388/ADR cells [1]; Mus musculus, P388/ADR, in vitro) of 0.152 µg/mL (≈ 0.411 µM) and a R/S (P388/ADR cells [1]; ratio resistant (P388/ADR) to sensitive (P388S) IC50) of 22. For the same compound, the “P388S T/C” value (P388 leukemia) was 164%, the “activity against P388/ADR tumors in vivo” value (P388/ADR leukemia; in words) was “inactive” and the “P388/ADR T/C” value (P388/ADR leukemia; maximum tolerated dose, i.p. Days 3-11 (Adriamycin Days 3, 7, 11), >130 = antitumor effect) was 113%. The “C26 ip T/C” value ([2]; i.p. implant, treated i.p. Days 3-7 and 10-14 (Adriamycin Days 5, 9, 13), >130 = antitumor effect) was 119%, the “activity against C26 colon tumor in vivo” value ([2]; in words, T/C×100>130 represents in vivo antitumor activity) was “without activity” and the “C26 sc T-C” value (C26/10 tumor) was 6.8 days. For the same compound, the “Antifol + FU” value ([3]; antifolate 1.0 nM 24 hours, 5 μM FU final 4 hours) was 12% of control, the “Antifol + LV” value ([3]; antifolate 1.0 nM 24 hours, LV 10 μM final 4.5 hours) was 85% of control and the “Antifol + LV + FU” value ([3]; antifolate 1.0 nM 24 hours, LV 10 μM final 4.5 hours, 5 μM FU final 4 hours) was 9% of control. The Antifol ([3]; antifolate 1.0 nM, 24 hours) was 80% of control, the “Antifol + FU” value (P388/ADR cells [4]; P388/ADR, TMQ 10 nM 24 hours, 5 μM FU final 4 hours) was 83% of control and the “Antifol + LV” value (P388/ADR cells [4]; P388/ADR, TMQ 10 nM 24 hours, LV 10 μM final 4.5 hours) was 100% of control. For the same compound, the “Antifol + LV + FU” value (P388/ADR cells [4]; P388/ADR, TMQ 10 nM 24 hours, LV 10 μM final 4.5 hours, 5 μM FU final 4 hours) was 76% of control, the Antifol (P388/ADR cells [4]; P388/ADR, TMQ 10 nM, 24 hours) was 92% of control and the “activity alone against P388/ADR cells” value (P388/ADR cells [4]; [7]) was “little activity alone”. For the same compound, the “increase in activity by addition of FU or LV, P388/ADR cells” value (P388/ADR cells [4]; [7]) was “nor was a significant increase in activity observed”, the “Antifol + FU” value ([5]; C26, antifolate 0.125 μM 24 hours, 5 μM FU final 4 hours) was 65% of Control and the “Antifol + LV” value ([5]; C26, antifolate 0.125 μM 24 hours, LV 10 μM final 4.5 hours) was 98% of Control. The “Antifol + FU + LV” value ([5]; C26, antifolate 0.125 μM 24 hours, LV 10 μM final 4.5 hours, 5 μM FU final 4 hours) was 64% of Control, the Antifol ([5]; C26, antifolate 0.125 μM, 24 hours) was 101% of Control and the “effect on C26 proliferation alone” value ([5]; in words, 0.125 μM) was “no effect”. For the same compound, the “synergy with FU and/or LV on C26 cells” value ([5]; in words, 0.125 μM) was “no significant synergy”, the response rate (colon cancer; TMQ added to LV/FU, colon cancer patients previously treated with FU) was 20% and the response rate (colon cancer; combination of TMQ, FU and LV, metastatic colorectal cancer patients) was 50%. For the same compound, the “Antifol + FU” value ([6]; antifolate 62.5 nM 24 hours, 5 μM FU final 4 hours) was 35% of control, the “Antifol + LV” value ([6]; antifolate 62.5 nM 24 hours, LV 10 μM final 4.5 hours) was 77% of control and the “Antifol + LV + FU” value ([6]; antifolate 62.5 nM 24 hours, LV 10 μM final 4.5 hours, 5 μM FU final 4 hours) was 30% of control. For the same compound, the Antifol ([6]; antifolate 62.5 nM, 24 hours) was 75% of control.

— patent US20040006042A1, “Diaminopyrimidines and combination therapies effective for treatment of P-glycoprotein positive cancers” (priority 1998, published 2004)
